Laboratory results: patent US10647713B2 (Nimbus Lakshmi, Inc., priority 2016, dated 2020)

Target: human TYK2 (JH2domain-pseudokinase) (Homo sapiens (Human), UniProt P29597)
Experiment: TYK2 JH2 Domain Binding Assay (KINOMEscan, DiscoveRx)
Settings: 11-point dilution, duplicate
In short: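 Kd from duplicate 11-point 3-fold dilutions starting at 30,000 nM, fitted by Hill equation with slope fixed at −1. Compounds (final 0.9% DMSO) displace DNA-tagged HEK293-expressed TYK2 JH2 fusion (<0.1 nM) from ligand-coated beads over 1 h at room temperature; eluted kinase read by qPCR.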

human TYK2 (JH2domain-pseudokinase), sequence (P29597 556-888): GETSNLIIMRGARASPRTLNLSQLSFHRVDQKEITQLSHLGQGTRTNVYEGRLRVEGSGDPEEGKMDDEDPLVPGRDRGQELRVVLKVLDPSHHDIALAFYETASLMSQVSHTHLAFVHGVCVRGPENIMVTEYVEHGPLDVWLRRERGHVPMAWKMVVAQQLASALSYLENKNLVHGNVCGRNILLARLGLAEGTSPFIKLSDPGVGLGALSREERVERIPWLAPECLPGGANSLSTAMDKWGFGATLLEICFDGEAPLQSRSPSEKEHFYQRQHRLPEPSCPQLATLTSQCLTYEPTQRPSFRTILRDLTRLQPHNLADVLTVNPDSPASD

Row | SMILES | Kd [nM]
1 | Cc1cc(Nc2cc(Nc3ccc([C@H]4CCCCO4)cc3S(C)(=O)=O)c3nc(C(F)F)[nH]c3n2)nc(C)n1 [I-494, (R)-2-(difluoromethyl)-N5-(2,6-dimethylpyrimidin-4-yl)-N7-(2-(methylsulfonyl)-4-(tetrahydro-2H-pyran-2-yl)phenyl)-3H-imidazo[4,5-b]pyridine-5,7-diamine] | < 0.1
2 | Cc1cnc(-c2ccc(Nc3cc(Nc4cc5n(n4)CCOC5)nc4[nH]c(C(F)F)nc34)c(S(C)(=O)=O)c2)s1 [I-495, 2-(difluoromethyl)-N5-(6,7-dihydro-4H-pyrazolo[5,1-c][1,4]oxazin-2-yl)-N7-(2-(methylsulfonyl)-4-(5-methylthiazol-2-yl)phenyl)-3H-imidazo[4,5-b]pyridine-5,7-diamine] | 0.1 to 0.5
3 | Cc1nc2c(Nc3ccc(-c4ncc(C)s4)cc3S(C)(=O)=O)cc(Nc3cc4n(n3)CCOC4)nc2[nH]1 [I-496, N5-(6,7-dihydro-4H-pyrazolo[5,1-c][1,4]oxazin-2-yl)-2-methyl-N7-(2-(methylsulfonyl)-4-(5-methylthiazol-2-yl)phenyl)-3H-imidazo[4,5-b]pyridine-5,7-diamine] | 0.1 to 0.5
4 | CC1(C)CC[C@H](c2ccc(Nc3cc(NC(=O)C4CC4)nc4[nH]c(C(F)F)nc34)c(S(C)(=O)=O)c2)O1 [I-498, (R)—N-(2-(difluoromethyl)-7-((4-(5,5-dimethyltetrahydrofuran-2-yl)-2-(methylsulfonyl)phenyl)amino)-3H-imidazo[4,5-b]pyridin-5-yl)cyclopropanecarboxamide] | 0.1 to 0.5
5 | CC1(C)CC[C@@H](c2ccc(Nc3cc(NC(=O)C4CC4)nc4[nH]c(C(F)F)nc34)c(S(C)(=O)=O)c2)O1 [I-499, (S)—N-(2-(difluoromethyl)-7-((4-(5,5-dimethyltetrahydrofuran-2-yl)-2-(methylsulfonyl)phenyl)amino)-3H-imidazo[4,5-b]pyridin-5-yl)cyclopropanecarboxamide] | 1 to 10
6 | COCc1nc(-c2ccc(Nc3cc(NC(=O)C4CC4)nc4[nH]c(C(F)F)nc34)c(S(C)(=O)=O)c2)sc1C [I-500, N-(2-(difluoromethyl)-7-((4-(4-(methoxymethyl)-5-methylthiazol-2-yl)-2-(methylsulfonyl)phenyl)amino)-3H-imidazo[4,5-b]pyridin-5-yl)cyclopropanecarboxamide] | 0.1 to 0.5
7 | COCCCn1ccc(-c2ccc(Nc3cc(NC(=O)C4CC4)nc4[nH]c(C(F)F)nc34)c(S(C)(=O)=O)c2)n1 [I-501, N-(2-(difluoromethyl)-7-((4-(1-(3-methoxypropyl)-1H-pyrazol-3-yl)-2-(methylsulfonyl)phenyl)amino)-3H-imidazo[4,5-b]pyridin-5-yl)cyclopropanecarboxamide] | 0.1 to 0.5
8 | COCCCn1ccc(-c2ccc(Nc3cc(NC(=O)C4CC4)nc4[nH]c(C)nc34)c(S(C)(=O)=O)c2)n1 [I-502, N-(7-((4-(1-(3-methoxypropyl)-1H-pyrazol-3-yl)-2-(methylsulfonyl)phenyl)amino)-2-methyl-3H-imidazo[4,5-b]pyridin-5-yl)cyclopropanecarboxamide] | 0.1 to 0.5
9 | Cc1nc2c(Nc3ccc(-c4ncc(C)s4)cc3S(C)(=O)=O)cc(Nc3cccc(C#N)n3)nc2[nH]1 [I-503, 6-((2-methyl-7-((2-(methylsulfonyl)-4-(5-methylthiazol-2-yl)phenyl)amino)-3H-imidazo[4,5-b]pyridin-5-yl)amino)picolinonitrile] | 0.1 to 0.5
10 | Cc1csc(-c2ccc(Nc3cc(Nc4cccc(C#N)n4)nc4[nH]c(C)nc34)c(S(C)(=O)=O)c2)n1 [I-504, 6-((2-methyl-7-((2-(methylsulfonyl)-4-(4-methylthiazol-2-yl)phenyl)amino)-3H-imidazo[4,5-b]pyridin-5-yl)amino)picolinonitrile] | 0.1 to 0.5
11 | Cc1cc(Nc2cc(Nc3ccc([C@@H]4CCCCO4)cc3S(C)(=O)=O)c3nc(C(F)F)[nH]c3n2)nc(C)n1 [I-505, (S)-2-(difluoromethyl)-N5-(2,6-dimethylpyrimidin-4-yl)-N7-(2-(methylsulfonyl)-4-(tetrahydro-2H-pyran-2-yl)phenyl)-3H-imidazo[4,5-b]pyridine-5,7-diamine] | 0.1 to 0.5
12 | Cc1nc2c(Nc3ccc(-c4nc(C)c(C)s4)cc3S(C)(=O)=O)cc(Nc3cccc(C#N)n3)nc2[nH]1 [I-506, 6-((7-((4-(4,5-dimethylthiazol-2-yl)-2-(methylsulfonyl)phenyl)amino)-2-methyl-3H-imidazo[4,5-b]pyridin-5-yl)amino)picolinonitrile] | 0.5 to 1
13 | Cc1nc(-c2ccc(Nc3cc(Nc4cccc(C#N)n4)nc4[nH]c(C(F)F)nc34)c(S(C)(=O)=O)c2)sc1C [I-507, 6-((2-(difluoromethyl)-7-((4-(4,5-dimethylthiazol-2-yl)-2-(methylsulfonyl)phenyl)amino)-3H-imidazo[4,5-b]pyridin-5-yl)amino)picolinonitrile] | 1 to 10
14 | Cc1nc2c(Nc3ccc(-c4cc(C)n(C)n4)cc3S(C)(=O)=O)cc(Nc3cnc(C)c(C)n3)nc2[nH]1 [I-508, N7-(4-(1,5-dimethyl-1H-pyrazol-3-yl)-2-(methylsulfonyl)phenyl)-N5-(5,6-dimethylpyrazin-2-yl)-2-methyl-3H-imidazo[4,5-b]pyridine-5,7-diamine] | < 0.1
15 | Cc1cc(Nc2cc(Nc3ccc(-c4cc(C)n(C)n4)cc3S(C)(=O)=O)c3nc(C)[nH]c3n2)nc(C)n1 [I-509, N7-(4-(1,5-dimethyl-1H-pyrazol-3-yl)-2-(methylsulfonyl)phenyl)-N5-(2,6-dimethylpyrimidin-4-yl)-2-methyl-3H-imidazo[4,5-b]pyridine-5,7-diamine] | < 0.1
16 | Cc1cc(Nc2cc(Nc3ccc(-c4nn(C)cc4C)cc3S(C)(=O)=O)c3nc(C(F)F)[nH]c3n2)nc(C)n1 [I-510, 2-(difluoromethyl)-N7-(4-(1,4-dimethyl-1H-pyrazol-3-yl)-2-(methylsulfonyl)phenyl)-N5-(2,6-dimethylpyrimidin-4-yl)-3H-imidazo[4,5-b]pyridine-5,7-diamine] | < 0.1

Row | SMILES | Kd [nM]
17 | Cc1cc(Nc2cc(Nc3ccc(-c4nn(C)cc4C)cc3S(C)(=O)=O)c3nc(C)[nH]c3n2)nc(C)n1 [I-511, N7-(4-(1,4-dimethyl-1H-pyrazol-3-yl)-2-(methylsulfonyl)phenyl)-N5-(2,6-dimethylpyrimidin-4-yl)-2-methyl-3H-imidazo[4,5-b]pyridine-5,7-diamine] | < 0.1
18 | COCc1nc(-c2ccc(Nc3cc(NC(=O)C4CC4)nc4[nH]c(C)nc34)c(S(C)(=O)=O)c2)sc1C [I-512, N-(7-((4-(4-(methoxymethyl)-5-methylthiazol-2-yl)-2-(methylsulfonyl)phenyl)amino)-2-methyl-3H-imidazo[4,5-b]pyridin-5-yl)cyclopropanecarboxamide] | < 0.1
19 | Cc1cnc(-c2ccc(Nc3cc(Nc4cccc(C#N)n4)nc4[nH]c(C(F)F)nc34)c(S(C)(=O)=O)c2)s1 [I-513, 6-((2-(difluoromethyl)-7-((2-(methylsulfonyl)-4-(5-methylthiazol-2-yl)phenyl)amino)-3H-imidazo[4,5-b]pyridin-5-yl)amino)picolinonitrile] | 0.5 to 1
20 | Cc1nc2c(Nc3ccc(-c4cc(C)n(C)n4)cc3S(C)(=O)=O)cc(Nc3cc4n(n3)CCOC4)nc2[nH]1 [I-514, N5-(6,7-dihydro-4H-pyrazolo[5,1-c][1,4]oxazin-2-yl)-N7-(4-(1,5-dimethyl-1H-pyrazol-3-yl)-2-(methylsulfonyl)phenyl)-2-methyl-3H-imidazo[4,5-b]pyridine-5,7-diamine] | < 0.1
21 | CS(=O)(=O)c1cc([C@H]2CCCCO2)ccc1Nc1cc(Nc2cc3n(n2)CCOC3)nc2[nH]c(C(F)F)nc12 [I-515, (R)-2-(difluoromethyl)-N5-(6,7-dihydro-4H-pyrazolo[5,1-c][1,4]oxazin-2-yl)-N7-(2-(methylsulfonyl)-4-(tetrahydro-2H-pyran-2-yl)phenyl)-3H-imidazo[4,5-b]pyridine-5,7-diamine] | < 0.1
22 | CS(=O)(=O)c1cc([C@@H]2CCCCO2)ccc1Nc1cc(Nc2cc3n(n2)CCOC3)nc2[nH]c(C(F)F)nc12 [I-516, (S)-2-(difluoromethyl)-N5-(6,7-dihydro-4H-pyrazolo[5,1-c][1,4]oxazin-2-yl)-N7-(2-(methylsulfonyl)-4-(tetrahydro-2H-pyran-2-yl)phenyl)-3H-imidazo[4,5-b]pyridine-5,7-diamine] | 0.1 to 0.5
23 | CS(=O)(=O)c1cc([C@H]2CCCCO2)ccc1Nc1cc(Nc2cccc(C(F)(F)F)n2)nc2[nH]c(C(F)F)nc12 [I-517, (R)-2-(difluoromethyl)-N7-(2-(methylsulfonyl)-4-(tetrahydro-2H-pyran-2-yl)phenyl)-N5-(6-(trifluoromethyl)pyridin-2-yl)-3H-imidazo[4,5-b]pyridine-5,7-diamine] | 0.5 to 1
24 | CS(=O)(=O)c1cc([C@@H]2CCCCO2)ccc1Nc1cc(Nc2cccc(C(F)(F)F)n2)nc2[nH]c(C(F)F)nc12 [I-518, (S)-2-(difluoromethyl)-N7-(2-(methylsulfonyl)-4-(tetrahydro-2H-pyran-2-yl)phenyl)-N5-(6-(trifluoromethyl)pyridin-2-yl)-3H-imidazo[4,5-b]pyridine-5,7-diamine] | 1 to 10
25 | Cc1cc(Nc2cc(Nc3ccc(-c4cc(C)n(C)n4)cc3S(C)(=O)=O)c3nc(C(F)F)[nH]c3n2)nc(C)n1 [I-519, 2-(difluoromethyl)-N7-(4-(1,5-dimethyl-1H-pyrazol-3-yl)-2-(methylsulfonyl)phenyl)-N5-(2,6-dimethylpyrimidin-4-yl)-3H-imidazo[4,5-b]pyridine-5,7-diamine] | 0.1 to 0.5
26 | COCc1ccc(Nc2cc(Nc3ccccc3S(C)(=O)=O)c3nc(C(F)F)[nH]c3n2)nn1 [I-520] | 0.1 to 0.5
27 | COCc1ccc(Nc2cc(Nc3ccccc3S(C)(=O)=O)c3nc(C)[nH]c3n2)nn1 [I-521] | < 0.1
28 | CS(=O)(=O)c1cc(-c2ccn(C3CCOCC3)n2)ccc1Nc1cc(NC(=O)C2CC2)nc2[nH]c(C(F)F)nc12 [I-522] | 0.1 to 0.5
29 | Cc1nc2c(Nc3ccc(-c4ccn(C5CCOCC5)n4)cc3S(C)(=O)=O)cc(NC(=O)C3CC3)nc2[nH]1 [I-523] | < 0.1
30 | CCOc1ccc(Nc2cc(Nc3ccccc3S(C)(=O)=O)c3nc(C(F)F)[nH]c3n2)nc1C#N [I-524] | 0.1 to 0.5
31 | CCOc1ccc(Nc2cc(Nc3ccccc3S(C)(=O)=O)c3nc(C)[nH]c3n2)nc1C#N [I-525] | < 0.1
